{
  "source": "patent US5112804A",
  "about": "“Pharmaceutical composition and method of intranasal administration” (Temple University of the Commonwealth System of Higher …, priority 1989, dated 1992)",
  "system": "blood glucose level",
  "assay": "Insulin absorption animal study, continuous blood glucose monitoring after nasal administration",
  "type": "in vivo, dog",
  "details": "dogs",
  "excerpt": "The hypoglycemic effect of the above preparations was confirmed in animal glucose monitoring studies utilizing continuous glucose monitoring with the device described in J. Clin. Endocrinol. Metab. 53: 1145 (1984). The device consists of a system for nonthrombogenic blood withdrawal coupled to a system for blood glucose measurement. The blood withdrawal system includes a disposable sterile intravenous needle and catheter connected to a peristaltic pump. The inside wall of the catheter is coated with tridodecyclmethylammonium chloride complexed with heparin to provide a nonthrombogenic surface. Blood is continuously withdrawn at a rate of 12 ml/hr from the experimental animal via the nonthrombogenic catheter. The blood is diluted in a Plexiglass mixing chamber with six volumes of phosphate buffer solution (0.015 M; pH 7.4) containing 10 IU/ml heparin and then moved into the device's sensory chamber. […]\nSix preconditioned female mongrel hound dogs treated for worms, weighing 19-20 kg, were fasted overnight and anesthetized in the morning with intravenous \"NEMBUTAL\" sodium pentobarbital (250 mg initial dose, 25 mg every 30 minutes for maintenance). […] Blood glucose level was continuously monitored. The resulting decrease in blood glucose level for the insulin dosages in Table 1 are recorded in FIGS. 1 to 12.",
  "data": [
    {"smiles": "CC1(C)[C@@H](O)CC[C@]2(C)[C@H]3C(=O)C=C4[C@@H]5C[C@@](C)(C(=O)O)CC[C@]5(C)CC[C@@]4(C)[C@]3(C)CC[C@@H]12", "note": "[glycyrrhetinic acid]", "values": [
      {"measurement": "enhancing absorption of insulin across the nasal membrane", "result": "effective"}
    ]}
  ]
}
